Data as given in DBAASP.
Converted amounts (≈) assume the structure as drawn. Blank lines part the entries; values can stand above or below the compound they belong to.

Key:
Assay in all cases: ≥ marks a high value that may be exact or a test limit, other limits are often not marked, values filed in µg/mL are converted to µM
[1] = system: Escherichia coli BL21
[2] = system: Pseudomonas aeruginosa PAO1
[3] = system: Streptococcus pyogenes M1T1 5448
[4] = system: Bacillus cereus ATCC 11778
[5] = system: Listeria monocytogenes 10403s
[6] = system: Staphylococcus aureus ATCC 25923
[7] = system: Escherichia coli O157:H7
[8] = system: Vibrio cholerae O1 Inaba
[9] = system: Pseudomonas aeruginosa ATCC 27853
[10] = system: Acinetobacter baumannii
[11] = system: Staphylococcus epidermidis ATCC 12228
[12] = system: Shigella sonnei ATCC 11060
[13] = system: Salmonella enterica subsp. enterica serovar Typhimurium ATCC 13311
[14] = system: Enterococcus faecalis ATCC 29212
[15] = system: Escherichia coli ATCC 25922
[16] = system: Staphylococcus aureus ATCC 43300
[17] = system: Staphylococcus aureus
[18] = system: Salmonella enterica subsp. enterica serovar Typhimurium ATCC 14028
[19] = system: Salmonella enterica subsp. enterica serovar Typhimurium C77-31
[20] = system: Streptococcus agalactiae
[21] = system: Staphylococcus aureus ATCC 29213
[22] = system: Salmonella enterica subsp. enterica serovar Choleraesuis CVCC 503
[23] = system: Salmonella enterica subsp. enterica serovar Pullorum C79-13
[24] = system: Escherichia coli UB1005
[25] = system: Staphylococcus epidermidis
[26] = system: Pseudomonas aeruginosa K799
[27] = system: Escherichia coli
[28] = system: Pseudomonas aeruginosa H744
[29] = system: Salmonella enterica subsp. enterica serovar Typhimurium ATCC 14028s
[30] = system: Pseudomonas aeruginosa H374
[31] = system: Escherichia coli KF130
[32] = system: Escherichia coli KF111

Structure (SMILES): CC[C@H](C)[C@H](NC(=O)[C@H](CC(=O)O)NC(=O)[C@H](Cc1ccccc1)NC(=O)[C@H](CC(C)C)NC(=O)CN)C(=O)N[C@H](C(=O)N[C@@H](CCCCN)C(=O)N[C@@H](CCCCN)C(=O)N[C@H](C(=O)N[C@@H](C)C(=O)NCC(N)=O)C(C)C)C(C)C [GLFDIVKKVAG]
MIC [4]: ≥ 218 µM
MIC [5]: ≥ 218 µM
MIC [6]: > 218 µM
MIC [7]: ≥ 218 µM
MIC [8]: ≥ 218 µM
MIC [9]: > 218 µM
MIC [10]: ≥ 218 µM
MIC [11]: > 218 µM
MIC [12]: ≥ 218 µM
MIC [13]: ≥ 218 µM
MIC [14]: > 218 µM
MIC [15]: > 218 µM

Structure (SMILES): CC[C@H](C)[C@H](N)C(=O)N[C@H](C(=O)N[C@@H](CS)C(=O)N[C@@H](CCCN=C(N)N)C(=O)N[C@@H](CCCCN)C(=O)N1CCC[C@H]1C(=O)N[C@H](C(=O)N[C@H](C(=O)N[C@@H](CS)C(=O)N[C@@H](CCCN=C(N)N)C(=O)N[C@@H](CCCCN)C(=O)N1CCC[C@H]1C(=O)N[C@H](C(=O)N[C@H](C(=O)N[C@@H](CS)C(=O)N[C@@H](CCCN=C(N)N)C(=O)N[C@@H](CCCCN)C(=O)N1CCC[C@H]1C(=O)N[C@H](C(=O)N[C@H](C(N)=O)[C@@H](C)CC)[C@@H](C)CC)[C@@H](C)CC)[C@@H](C)CC)[C@@H](C)CC)[C@@H](C)CC)[C@@H](C)CC [IICRKPIICRKPIICRKPII]
MIC [16]: 64 µM (≈ 152 µg/mL)
MIC [17]: > 64 µM
MIC [18]: 8 µM (≈ 19 µg/mL)
MIC [19]: 8 µM (≈ 19 µg/mL)
MIC [20]: ≥ 64 µM
MIC [21]: > 64 µM
MIC [11]: 64 µM (≈ 152 µg/mL)
MIC [22]: 16 µM (≈ 38 µg/mL)
MIC [23]: ≥ 32 µM
MIC [14]: > 64 µM
MIC [24]: 4 µM (≈ 9.5 µg/mL)
MIC [15]: 4 µM (≈ 9.5 µg/mL)

Structure (SMILES): CC[C@H](C)[C@H](NC(=O)[C@H](C)NC(=O)[C@H](CCCCN)NC(=O)[C@H](CC(C)C)NC(=O)[C@H](C)NC(=O)[C@@H](NC(=O)[C@H](Cc1cnc[nH]1)NC(=O)[C@H](CC(C)C)NC(=O)[C@@H](NC(=O)[C@@H](NC(=O)[C@H](CCCCN)NC(=O)[C@@H](NC(=O)[C@H](C)NC(=O)[C@H](CO)NC(=O)[C@H](CCCCN)NC(=O)[C@H](Cc1ccccc1)NC(=O)[C@@H](NC(=O)[C@H](CCCCN)NC(=O)[C@H](CC(C)C)NC(=O)[C@H](Cc1ccccc1)NC(=O)[C@H](CO)NC(=O)[C@H](CCCCN)NC(=O)[C@H](Cc1c[nH]c2ccccc12)NC(=O)[C@@H](N)CCCCN)[C@@H](C)O)C(C)C)[C@@H](C)O)C(C)C)[C@@H](C)O)C(=O)N[C@@H](CO)C(=O)N[C@@H](CO)C(=O)O [KWKSFLKTFKSAVKTVLHTALKAISS]
MIC [25]: 1.37 µM (≈ 4 µg/mL)
MIC [26]: 0.685 µM (≈ 2 µg/mL)
MIC [17]: 1.37 µM (≈ 4 µg/mL)
MIC [9]: 4 µM (≈ 11.7 µg/mL)
MIC [27]: 0.171 µM (≈ 0.5 µg/mL)
MIC [28]: 0.685 µM (≈ 2 µg/mL)
MIC [29]: 1.37 µM (≈ 4 µg/mL)
MIC [30]: 0.685 µM (≈ 2 µg/mL)
MIC [31]: 0.342 µM (≈ 1 µg/mL)
MIC [24]: 0.171 µM (≈ 0.5 µg/mL)
MIC [32]: 0.342 µM (≈ 1 µg/mL)

Structure (SMILES): CC[C@H](C)[C@H](NC(=O)[C@H](C)NC(=O)[C@H](CCCCN)NC(=O)[C@H](CC(C)C)NC(=O)[C@H](C)NC(=O)[C@@H](NC(=O)[C@H](Cc1cnc[nH]1)NC(=O)[C@H](Cc1ccccc1)NC(=O)[C@@H](NC(=O)[C@@H](NC(=O)[C@H](CCCCN)NC(=O)[C@H](C)NC(=O)[C@@H]1CCCN1C(=O)[C@H](CO)NC(=O)[C@H](CCCCN)NC(=O)[C@H](CC(C)C)NC(=O)[C@@H](NC(=O)[C@H](CCCN=C(N)N)NC(=O)[C@H](CC(C)C)NC(=O)[C@H](Cc1ccccc1)NC(=O)[C@H](CO)NC(=O)[C@H](CCCCN)NC(=O)[C@H](Cc1c[nH]c2ccccc12)NC(=O)[C@@H](N)CCCCN)[C@@H](C)O)[C@@H](C)O)C(C)C)[C@@H](C)O)C(=O)N[C@@H](CO)C(=O)N[C@@H](CO)C(=O)O [KWKSFLRTLKSPAKTVFHTALKAISS]
MIC [25]: 1.36 µM (≈ 4 µg/mL)
MIC [26]: 5.43 µM (≈ 16 µg/mL)
MIC [17]: 10.9 µM (≈ 32 µg/mL)
MIC [27]: 0.17 µM (≈ 0.5 µg/mL)
MIC [28]: 2.72 µM (≈ 8 µg/mL)
MIC [29]: 1.36 µM (≈ 4 µg/mL)
MIC [30]: 2.72 µM (≈ 8 µg/mL)
MIC [31]: 0.339 µM (≈ 1 µg/mL)
MIC [24]: 0.17 µM (≈ 0.5 µg/mL)
MIC [32]: 0.339 µM (≈ 1 µg/mL)

Further lines, with some results ahead:

MIC [1]: 1 µM (≈ 3.06 µg/mL)
MIC [2]: 16 µM (≈ 48.9 µg/mL)
MIC [3]: 4 µM (≈ 12.2 µg/mL)
Structure (SMILES): CC[C@H](C)[C@H](NC(=O)[C@H](CCCCN)NC(=O)[C@H](CCCCN)NC(=O)[C@H](CCCCN)NC(=O)[C@H](CC(C)C)NC(=O)[C@H](CCCN=C(N)N)NC(=O)[C@H](CCC(N)=O)NC(=O)[C@H](Cc1ccccc1)NC(=O)[C@@H](NC(=O)[C@@H](NC(=O)[C@H](CCC(=O)O)NC(=O)[C@H](CCCCN)NC(=O)CNC(=O)[C@H](C)N)[C@@H](C)O)[C@@H](C)CC)C(=O)N[C@@H](CCC(N)=O)C(=O)N[C@@H](CCC(=O)O)C(=O)N[C@@H](CCCCN)C(=O)N[C@@H](Cc1c[nH]c2ccccc12)C(=O)N[C@@H](CCCCN)C(=O)N[C@@H](CCCN=C(N)N)C(=O)N[C@@H](C)C(=O)N[C@H](C(=O)N[C@H](C(=O)N[C@@H](C)C(=O)N[C@@H](Cc1c[nH]c2ccccc12)C(=O)O)[C@@H](C)CC)[C@@H](C)O [AGKETIFQRLKKKIQEKWKRATIAW]

MIC [1]: 1 µM (≈ 3.13 µg/mL)
MIC [2]: 4 µM (≈ 12.5 µg/mL)
MIC [3]: 4 µM (≈ 12.5 µg/mL)
Structure (SMILES): CC[C@H](C)[C@H](NC(=O)[C@H](CCC(=O)O)NC(=O)[C@H](CCCN=C(N)N)NC(=O)[C@H](CCCN=C(N)N)NC(=O)[C@H](CC(C)C)NC(=O)[C@H](Cc1ccc(O)cc1)NC(=O)[C@H](CCCCN)NC(=O)[C@H](C)NC(=O)[C@@H](NC(=O)[C@@H](NC(=O)[C@H](CCC(N)=O)NC(=O)[C@H](CCCN=C(N)N)NC(=O)[C@H](Cc1c[nH]c2ccccc12)NC(=O)[C@H](C)N)[C@@H](C)O)[C@@H](C)CC)C(=O)N[C@@H](CCCN=C(N)N)C(=O)N[C@@H](CCCCN)C(=O)N[C@@H](CCCN=C(N)N)C(=O)NCC(=O)N[C@@H](CCCN=C(N)N)C(=O)N[C@@H](CCCCN)C(=O)N[C@@H](C)C(=O)N[C@H](C(=O)N[C@H](C(=O)N[C@@H](C)C(=O)N[C@@H](Cc1c[nH]c2ccccc12)C(=O)O)[C@@H](C)CC)C(C)C [AWRQTIAKYLRREIRKRGRKAVIAW]

MIC [4]: 2.7 µM (≈ 7.81 µg/mL)
MIC [5]: 1.35 µM (≈ 3.91 µg/mL)
MIC [6]: 5.4 µM (≈ 15.6 µg/mL)
MIC [7]: ≥ 86.4 µM
MIC [9]: 2.7 µM (≈ 7.81 µg/mL)
MIC [10]: 2.7 µM (≈ 7.81 µg/mL)
MIC [11]: 1.35 µM (≈ 3.91 µg/mL)
MIC [12]: 1.35 µM (≈ 3.91 µg/mL)
MIC [13]: 2.7 µM (≈ 7.81 µg/mL)
MIC [14]: 10.8 µM (≈ 31.2 µg/mL)
MIC [15]: 5.4 µM (≈ 15.6 µg/mL)
Structure (SMILES): CC[C@H](C)[C@H](NC(=O)[C@H](CCCN=C(N)N)NC(=O)[C@H](CCCCN)NC(=O)[C@H](C)NC(=O)[C@@H](NC(=O)[C@@H](N)CCCCN)[C@@H](C)CC)C(=O)N[C@@H](Cc1c[nH]c2ccccc12)C(=O)N[C@@H](CCCCN)C(=O)N[C@H](C(=O)N[C@@H](CC(C)C)C(=O)N[C@@H](CCCN=C(N)N)C(=O)N[C@@H](CCCN=C(N)N)C(=O)N[C@@H](CCCN=C(N)N)C(=O)N[C@@H](CC(C)C)C(=O)N[C@@H](Cc1ccccc1)C(=O)N[C@@H](CCCN=C(N)N)C(=O)N[C@@H](CCCN=C(N)N)C(=O)N[C@H](C(=O)N[C@@H](CCCCN)C(=O)N[C@@H](CCCCN)C(=O)N[C@H](C(=O)N[C@@H](C)C(=O)NCC(N)=O)C(C)C)C(C)C)[C@@H](C)CC [KIAKRIWKILRRRLFRRVKKVAG]
MIC [8]: 2.7 µM (≈ 7.81 µg/mL)
